Measurements taken from patent US20260308278A1, “ANTIBODY THAT BINDS TO C3bBb” (Hoffmann-La Roche Inc., priority 2023, published 2026).

Assays:
[1] = test system: classical pathway; experiment: Classical pathway hemolysis assay (Ab-sensitized sheep erythrocytes); assay type: cell-based, human
Procedure: Everything was prepared at RT except for the serum which was kept on ice so that the complement cascade would not start. Washed Ab-sensitized sheep erythrocytes (EA) were added to a V-shaped 96-well plate together with the dilution series of antibodies in a buffer appropriate for the classical pathway. Normal human serum was added at a final assay concentration of 2% and mixed gently with the other components. Complement activation was started by incubating the plates at 37° C. shaking continuously at 600 rpm to prevent the total sedimentation of the EAs. Hemolysis reaction was stopped after 30 min with the addition of ice-cold NaCl-solution containing 10 mM EDTA. Plates were centrifuged for 2 min at 1000×g at 4° C. to pellet the non-lysed EAs. […] Percentage of hemolysis was calculated: (OD test sample−OD BG or EDTA ctrl)/(OD full lysis−OD BG or EDTA ctrl)×100. IC50 values were calculated using Xlfit.

[2] = test system: C3bBb from Chlorocebus sabaeus; experiment: Cross-reactivity hemolysis assay, Chlorocebus sabaeus; assay type: cell-based, Chlorocebus sabaeus (African Green Monkey); conditions: RT, 20 min
[3] = molecular target: T1, C3 convertase (C3bBb) (Homo sapiens, UniProt P00751+P01024); experiment: BLI based C3b deposition assay; assay type: biochemical; conditions: comparative compounds, Table E14
T1 construct: C3b fragment of complement component C3; from tissue; host or cells: plasma (factor B and factor D)
Procedure: In another experiment, the potency of the antibodies was assessed via a BLI based C3b deposition assay.
BLI based C3b deposition assay: The activated carbonyl group created upon C3 cleavage by the C3 convertase reacts and forms covalent adducts with nucleophiles in close proximity to the enzyme. We utilized this property to measure convertase activity by quantifying the C3b mass deposited on a BLI sensor loaded with C3bBb and exposed to C3.

[4] = test system: alternative complement pathway in human serum; experiment: Wieslab Complement system Alternative pathway assay; assay type: biochemical; conditions: comparative compounds, Table E14
Procedure: This kit is an enzyme immunoassay for the determination of functional alternative complement pathway in human serum.
It combines principles of a hemolytic assay for complement activation with the use of specific antibodies to detect the generated neoantigen, which is proportional to the functional activity of the complement pathway. […] This mixture was diluted 1:18 in a diluent with a specific blocker (so that only AP will be activated) and incubated for another 15 min at RT. Solution was added to a 96-well plate specifically coated with activators of the AP and incubated for 60 min at 37° C. Wells were washed and C5b-9 detected following the protocol.

[5] = test system: C3bBb from Macaca Fascicularis; experiment: Cross-reactivity hemolysis assay, Macaca Fascicularis; assay type: cell-based, Macaca Fascicularis (Cynomolgus); conditions: 37° C., 20 min

T1 sequence (P01024 23-667 limits assumed): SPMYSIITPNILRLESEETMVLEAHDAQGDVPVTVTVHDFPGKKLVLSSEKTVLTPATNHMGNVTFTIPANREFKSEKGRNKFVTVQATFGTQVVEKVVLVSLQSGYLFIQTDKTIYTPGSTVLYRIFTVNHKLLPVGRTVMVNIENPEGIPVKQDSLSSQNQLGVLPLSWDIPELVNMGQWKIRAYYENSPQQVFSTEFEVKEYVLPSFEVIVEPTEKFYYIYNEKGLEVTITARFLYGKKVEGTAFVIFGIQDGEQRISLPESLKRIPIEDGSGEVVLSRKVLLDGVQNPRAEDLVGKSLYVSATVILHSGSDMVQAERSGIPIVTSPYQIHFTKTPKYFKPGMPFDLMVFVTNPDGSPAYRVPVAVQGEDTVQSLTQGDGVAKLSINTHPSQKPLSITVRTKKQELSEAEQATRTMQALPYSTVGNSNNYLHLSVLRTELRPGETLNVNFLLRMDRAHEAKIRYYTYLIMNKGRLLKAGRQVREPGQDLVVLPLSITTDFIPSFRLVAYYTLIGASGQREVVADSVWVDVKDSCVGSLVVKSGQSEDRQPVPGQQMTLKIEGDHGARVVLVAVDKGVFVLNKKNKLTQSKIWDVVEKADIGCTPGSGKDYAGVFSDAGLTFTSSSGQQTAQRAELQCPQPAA
T1 sequence (P01024 749-1663 limits assumed): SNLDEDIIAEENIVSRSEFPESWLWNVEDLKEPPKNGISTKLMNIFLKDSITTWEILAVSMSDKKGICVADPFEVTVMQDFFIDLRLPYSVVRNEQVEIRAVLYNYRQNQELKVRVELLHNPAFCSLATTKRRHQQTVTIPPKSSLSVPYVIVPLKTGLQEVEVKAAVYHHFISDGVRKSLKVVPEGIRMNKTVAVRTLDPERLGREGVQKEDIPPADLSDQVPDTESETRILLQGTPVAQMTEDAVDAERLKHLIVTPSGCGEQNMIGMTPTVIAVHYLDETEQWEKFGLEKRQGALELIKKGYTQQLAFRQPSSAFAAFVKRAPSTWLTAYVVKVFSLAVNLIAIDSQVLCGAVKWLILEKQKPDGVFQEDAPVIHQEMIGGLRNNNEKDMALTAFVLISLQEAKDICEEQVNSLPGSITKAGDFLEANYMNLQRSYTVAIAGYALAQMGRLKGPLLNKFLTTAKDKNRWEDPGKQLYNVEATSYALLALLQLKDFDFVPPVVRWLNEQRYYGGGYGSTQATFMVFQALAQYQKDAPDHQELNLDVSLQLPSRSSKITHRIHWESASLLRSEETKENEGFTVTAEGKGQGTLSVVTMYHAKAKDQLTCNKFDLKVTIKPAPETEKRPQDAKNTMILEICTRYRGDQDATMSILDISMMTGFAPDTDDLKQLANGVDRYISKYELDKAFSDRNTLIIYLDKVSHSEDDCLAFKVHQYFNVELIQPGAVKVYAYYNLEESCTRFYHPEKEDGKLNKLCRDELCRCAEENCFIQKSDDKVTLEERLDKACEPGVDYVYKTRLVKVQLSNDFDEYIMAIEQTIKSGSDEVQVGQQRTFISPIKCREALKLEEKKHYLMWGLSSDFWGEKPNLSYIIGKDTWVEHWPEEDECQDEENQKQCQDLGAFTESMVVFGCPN
T1 sequence (P00751 260-764 limits assumed): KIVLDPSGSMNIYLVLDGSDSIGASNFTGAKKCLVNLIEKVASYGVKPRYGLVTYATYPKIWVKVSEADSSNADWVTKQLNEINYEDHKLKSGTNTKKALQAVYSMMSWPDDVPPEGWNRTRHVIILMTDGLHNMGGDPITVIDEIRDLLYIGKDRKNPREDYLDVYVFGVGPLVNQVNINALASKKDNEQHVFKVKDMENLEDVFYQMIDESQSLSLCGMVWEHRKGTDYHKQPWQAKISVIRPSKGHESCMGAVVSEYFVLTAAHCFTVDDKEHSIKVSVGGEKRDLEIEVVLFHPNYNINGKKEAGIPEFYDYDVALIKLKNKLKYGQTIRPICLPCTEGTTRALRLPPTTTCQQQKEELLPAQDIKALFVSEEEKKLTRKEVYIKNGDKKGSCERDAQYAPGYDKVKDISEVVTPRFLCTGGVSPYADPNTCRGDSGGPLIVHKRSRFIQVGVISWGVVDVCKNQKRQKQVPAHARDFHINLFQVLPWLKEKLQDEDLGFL

IC50 [3] | IC50 [4] | Molecule | inhibition of the classical pathway [1] | IC50 [2] | IC50 ([1]; 2% normal human serum, sheep erythrocytes) | IC50 [5]
 |  | CCO[C@H]1CCN(Cc2c(OC)cc(C)c3[nH]ccc23)[C@H](c2ccc(C(=O)O)cc2)C1 [LNP023, Iptacopan] | does not inhibit the classical pathway |  |  | 
200 nM | 274 nM | Pegcetacoplan [APL-2] |  | 147 nM | 1020 nM | 316 nM
